Reference: ChEMBL document CHEMBL4052746, “Flavonoid glycosides from Barringtonia acutangula” (Bioorg Med Chem Lett, 2017)

How the values were obtained:
RAW264.7 [1] = assay: Antiinflammatory activity in mouse RAW264.7 cells assessed as inhibition of LPS-induced NO production pretreated for 30 mins followed by LPS stimulation for 24 hrs by Griess assay; assay type: functional, cell-based
RAW264.7 [2] = assay: Cytotoxicity against mouse RAW264.7 cells assessed as reduction in cell viability by MTT assay; assay type: cell-based

O=C(OC[C@H]1O[C@@H](Oc2c(-c3ccc(O)c(O)c3)oc3cc(O)cc(O)c3c2=O)[C@H](O)[C@@H](O)[C@H]1O)c1ccc(O)cc1
IC50 (RAW264.7 [1]): 20 µM
Activity (RAW264.7 [2]): Non-Toxic
